Data published in patent US20230263822A1, “MODULATION OF FACTOR 11 EXPRESSION” (Ionis Pharmaceuticals, Inc., priority 2008, published 2023).
Strand notation (5' to 3'): a small letter for the sugar, then the base; units joined by * are phosphorothioate-linked, units joined directly phosphodiester-linked; [ ] holds rarer units or linkages, { } end groups; capitals alone tell only the bases. e = 2'-O-(2-methoxyethyl) (MOE); [5mC] = 5-methylcytosine; d = 2'-deoxy (DNA)

Assay: Hematology assays in cynomolgus monkeys (Example 46)
Type: in vivo
Experimental: Groups, each consisting of two male and two female monkeys, were injected subcutaneously with 25 mg/kg of ISIS 416850, ISIS 449709, ISIS 445522, ISIS 449710, ISIS 449707, ISIS 449711, ISIS 449708, 416858, and ISIS 445531. Antisense oligonucleotide was administered to the monkeys at 25 mg/kg three times per week for week 1 and 25 mg/kg twice per week for weeks 2 to 8. A control group, consisting of two male and two female monkeys was injected subcutaneously with PBS according to the same dosing regimen. Body weights were taken 14 days and 7 days before the start of treatment and were then measured weekly throughout the treatment period. Blood samples were collected 14 days and 5 days before the start of treatment and subsequently several times during the dosing regimen for PT and aPTT measurements, and measurement of various hematologic factors. On day 55, the monkeys were euthanized by exsanguination while under deep anesthesia, and organs harvested for further analysis.

Question: What does the source list for “ISIS 449708: 3-8-3, 4-8-4, 2-10-2, 3-10-3 or 4-10-4 MOE microwalk gapmer (Table 46) (antisense eA*e[5mC]*eA*dG*dT*dT*dT*d[5mC]*dT*dG*dG*e[5mC]*eA*eG)”?
Answer: HCT (Day 17): 44%; MCH (Day 17): 22.9 pg; MCHC (Day 17): 30.7 g/dL; MCV (Day 17): 75 fL; RBC count (Day 17): 5.9e+06 µL⁻¹; WBC count (Day 17): 11000 µL⁻¹; hemoglobin content (Day 17): 13.5 g/dL; monocytes (Day 17): 5.4%; neutrophils (Day 17): 61%; platelet count (Day 17): 444 ×100/μL; HCT (Day 31): 43%; MCH (Day 31): 22.7 pg; MCHC (Day 31): 29.9 g/dL; MCV (Day 31): 75 fL; RBC count (Day 31): 5.8e+06 µL⁻¹; WBC count (Day 31): 11000 µL⁻¹; hemoglobin content (Day 31): 13.0 g/dL; monocytes (Day 31): 5.8%; neutrophils (Day 31): 57%; platelet count (Day 31): 378 ×100/μL; HCT (Day 45): 44%; MCH (Day 45): 22.2 pg; MCHC (Day 45): 30.6 g/dL; MCV (Day 45): 74 fL; RBC count (Day 45): 6e+06 µL⁻¹; WBC count (Day 45): 10000 µL⁻¹; hemoglobin content (Day 45): 13.3 g/dL; monocytes (Day 45): 7.0%; neutrophils (Day 45): 61%; platelet count (Day 45): 381 ×100/μL; HCT (Day 55): 42%; MCH (Day 55): 22.5 pg; MCHC (Day 55): 31.8 g/dL; MCV (Day 55): 74 fL; RBC count (Day 55): 5.8e+06 µL⁻¹; WBC count (Day 55): 10000 µL⁻¹; hemoglobin content (Day 55): 13.0 g/dL; monocytes (Day 55): 6.2%; neutrophils (Day 55): 75%; platelet count (Day 55): 348 ×100/μL; HCT (Day-5): 44%; MCH (Day-5): 22.7 pg; MCHC (Day-5): 30.2 g/dL; MCV (Day-5): 75 fL; RBC count (Day-5): 5.9e+06 µL⁻¹; WBC count (Day-5): 10000 µL⁻¹; hemoglobin content (Day-5): 13.2 g/dL; monocytes (Day-5): 2.6%; neutrophils (Day-5): 84%; platelet count (Day-5): 517 ×100/μL; HCT (Day-14): 41%; MCH (Day-14): 22.9 pg; MCHC (Day-14): 31.4 g/dL; MCV (Day-14): 73 fL; RBC count (Day-14): 5.7e+06 µL⁻¹; WBC count (Day-14): 14000 µL⁻¹; hemoglobin content (Day-14): 13.0 g/dL; monocytes (Day-14): 1.7%; neutrophils (Day-14): 73%; platelet count (Day-14): 387 ×100/μL
